Measured values as given in PMC11697777, “How ligands modulate the gastric H,K-ATPase activity and its inhibition by tegoprazan” (The Journal of Biological Chemistry, 2024).
Like-named read-outs stand apart in the source and are kept apart here.

Molecular target: T1, gastric H,K-ATPase (Sus scrofa, UniProt P19156)
T1 construct: We prepared H,K-ATPase (EC 7.2.2.19)-enriched membrane vesicles according to Sachs et al; from tissue; host or cells: gastric membrane vesicles
Experiment: H,K-ATPase activity (Pi release from ATP) inhibition, steady-state kinetic analysis
Assay type: biochemical, hog
Conditions: for IC50: 10 mM KCl, read-out: K0.5 for inhibition of ATPase activity; for Kd: fit of model III (binding to E2P and E1ATP), 37 °C
Description: We prepared H,K-ATPase (EC 7.2.2.19)-enriched membrane vesicles according to Sachs et al. ([36]), with slight modifications. The number of nucleotide sites measured under optimal conditions (2.2 mM ATP, 4 mM MgCl2, 0.25 mM EDTA in 25 mM imidazole–HCl, pH 7.4 at 25 °C) was 1.4 nmol per mg of protein. This preparation is essentially free of contamination with Na,K-ATPase, as evidenced by the lack of ouabain-sensitive activity. 0.4 to 0.6 mg alamethicin per milligram protein was used to permeabilize the vesicles.
ATP hydrolysis by H,K-ATPase was measured by following the time course of Pi release at 37 °C; linearity was always checked in order to ensure initial rate conditions. Pi concentration was determined according to the method described by Baginski et al. ([37]) Incubations were performed at 37 °C in media containing 8 μg protein ml^−1, 2 mM ATP, 4 mM MgCl2, and 0.25 mM EDTA in 20 mM imidazole – 20 mM Tris (varying pH) in a final volume of 0.25 ml. KCl concentrations varied between 0 and 100 mM, using choline chloride to adjust total monovalent salt concentration to 150 mM. Reaction blanks were determined by measuring ATP hydrolysis in media containing vanadate. For experiments at variable pH, a buffer combination of 20 mM imidazole-HCl and 20 mM Tris–HCl was used. Tegoprazan and SCH28080 were dissolved in DMSO. The final DMSO concentration in the reaction media was 1%.
were fitted to the data of ATPase activity by nonlinear regression based on the Gauss–Newton algorithm by commercial programs ([38]). Kis parameters are apparent dissociation constants expressed in concentration units, whereas the ais parameters are coefficients with units of activity. A methodical exploration of the equation that best fits each set of results was performed. We first determined the degree of the polynomials in the numerator and the denominator (considering the restriction of n ≤ d and m ≤ d to conform to steady-state equations for enzymes) and then evaluated the contribution of terms of intermediate degree. The goodness of fit of a given equation to the experimental results was evaluated by the AICc ([39]) defined as(5) AICc=N·ln(SS/N)+2·(K+1)·N/(N−K−2) with N: number of data, K: number of parameters, and SS: sum of weighted square residual errors. This criterion allows one to select among multiple equations, the one that best describes the behavior of the experimental data using the least number of parameters, that is the lower value of AICc.
The equations of activity as a function of ligands for each kinetic model were attained using the Mathematica for Windows program. To determine the parameters that will be used to simulate the data, the rate constants and pKa values were fitted to the results using a procedure based on the Gauss–Newton algorithm until the SD of the residual errors reaches a minimal value.

T1 sequence (P19156 2-1034 limits assumed): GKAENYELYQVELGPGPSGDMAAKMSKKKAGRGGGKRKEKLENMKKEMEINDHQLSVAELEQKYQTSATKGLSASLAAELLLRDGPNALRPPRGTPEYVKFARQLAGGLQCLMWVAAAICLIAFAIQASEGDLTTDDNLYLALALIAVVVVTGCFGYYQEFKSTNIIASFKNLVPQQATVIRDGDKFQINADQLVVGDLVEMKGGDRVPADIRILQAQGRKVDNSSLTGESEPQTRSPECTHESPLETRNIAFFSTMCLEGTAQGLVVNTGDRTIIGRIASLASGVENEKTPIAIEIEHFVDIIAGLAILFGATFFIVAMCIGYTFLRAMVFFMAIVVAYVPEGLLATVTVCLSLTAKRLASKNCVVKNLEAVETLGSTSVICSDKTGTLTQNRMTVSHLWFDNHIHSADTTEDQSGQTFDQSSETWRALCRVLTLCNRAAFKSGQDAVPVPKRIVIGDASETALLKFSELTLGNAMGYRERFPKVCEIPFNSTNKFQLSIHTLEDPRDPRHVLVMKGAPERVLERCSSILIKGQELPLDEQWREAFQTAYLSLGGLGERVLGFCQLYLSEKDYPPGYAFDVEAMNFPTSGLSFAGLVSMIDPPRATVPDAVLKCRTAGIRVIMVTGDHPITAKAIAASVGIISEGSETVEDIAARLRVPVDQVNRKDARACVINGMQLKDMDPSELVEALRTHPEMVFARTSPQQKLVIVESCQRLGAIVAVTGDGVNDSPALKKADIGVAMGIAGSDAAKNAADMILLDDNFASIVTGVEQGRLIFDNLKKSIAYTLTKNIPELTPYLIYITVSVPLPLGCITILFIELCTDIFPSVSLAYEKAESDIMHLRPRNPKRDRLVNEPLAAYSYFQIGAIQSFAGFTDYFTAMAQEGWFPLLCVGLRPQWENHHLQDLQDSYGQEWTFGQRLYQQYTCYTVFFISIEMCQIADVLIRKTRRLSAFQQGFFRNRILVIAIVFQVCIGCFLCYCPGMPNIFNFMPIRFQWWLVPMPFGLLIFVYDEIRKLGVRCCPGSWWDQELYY
T1 sequence (P18434 whole entry partner): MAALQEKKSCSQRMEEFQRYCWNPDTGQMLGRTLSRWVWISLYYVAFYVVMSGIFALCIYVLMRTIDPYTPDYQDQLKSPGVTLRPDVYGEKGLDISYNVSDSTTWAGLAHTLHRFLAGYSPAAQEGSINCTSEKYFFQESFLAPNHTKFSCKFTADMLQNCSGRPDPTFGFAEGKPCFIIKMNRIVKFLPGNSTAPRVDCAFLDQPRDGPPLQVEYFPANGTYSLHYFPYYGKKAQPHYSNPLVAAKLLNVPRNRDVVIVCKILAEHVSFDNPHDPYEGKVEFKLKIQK

- effect of inhibitor on K0.5 for potassium (Equation 3) ([K+] 0-15 mM, pH 7.2): increase in K0.5
- effect of inhibitor on Vmax (Equation 3) ([K+] 0-15 mM, pH 7.2): decrease in Vmax
- effect of inhibitor on K1, apparent high-affinity dissociation constant for K+ (Equation 1) ([K+] 0-75 mM): increase in K1
- effect of inhibitor on K2, apparent low-affinity dissociation constant for K+ (Equation 1) ([K+] 0-75 mM): slight increase
- Kii, equilibrium constant for low-affinity binding (E2KATP), model II (fit of model II (binding to E2P and E2KATP), [K+] 0-75 mM): 3.55 µM
- Ki (fit of model II (binding to E2P and E2KATP), [K+] 0-75 mM, read-out: Ki, equilibrium constant for high-affinity binding (E2P), model II): 410 nM
- IC50 (pH 6.2): 890 ± 40 nM
- IC50 (pH 7.2): 3250 ± 290 nM
- Kd (pH 7.2, [K+] 0-75 mM, read-out: apparent Kd / apparent affinity constant, high-affinity binding (Ki) to E2P, model III): 560 ± 40 nM
- Kd (pH 7.2, [K+] 0-75 mM, read-out: apparent Kd / apparent affinity constant, low-affinity binding (Kii) to E1ATP, model III): 2700 ± 240 nM
SMILES: Cc1nc2c(O[C@H]3CCOc4cc(F)cc(F)c43)cc(C(=O)N(C)C)cc2[nH]1 [tegoprazan, (S)-4-((5,7-difluorochroman-4-yl)oxy)-N,N,2-trimethyl−1Hbenzo[d]imidazole-6-carboxamide]
- effect of inhibitor on a1, theoretical maximal activity (Equation 1) ([K+] 0-75 mM): decreases as a function of the inhibitor concentration
